Literature values as cited in publication PMC10933920, “Synthesis and Anti-Inflammatory Activity of Ferulic Acid-Sesquiterpene Lactone Hybrids” (Molecules, 2024).

Tested on: primary lung fibroblasts derived from patients with IPF and non-diseased controls
Design: method as in PMID 33730605
Conditions: unstimulated fibroblasts, 0–10 µM ACT001; cited from earlier work

## CC1=C2CC[C@@](C)(O)[C@@H]2[C@H]2OC(=O)[C@@H](CN(C)C)[C@@H]2CC1 [ACT001]
  IL-6 production: inhibited IL-6
